According to patent US20240279220A1, “INDOLE COMPOUNDS AND METHODS OF USE” (Genzyme Corporation, priority 2021, published 2024):

What follows are compounds tested on NBD1/3D (assay: Aggregation analysis using differential static light scattering (DSLS), NBD1 thermal stability). Settings: ΔTagg versus DMSO control; compound at 100 μM.
Assay type: binding, Human
Outline: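 Purified NBD1 at 0.2 mg/ml in S200 buffer (pH 7.6, 2 mM ATP, 5 mM MgCl2, 1% glycerol) was heated with compound at 1 °C/min to 70 °C. Tagg taken from the light-scattering curve inflection point; ΔTagg = compound Tagg minus mean DMSO control Tagg.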
`CC(O)(c1cccc(CCC(=O)O)c1)c1cnc(-c2cc(Oc3c(F)cc4[nH]ccc4c3P(C)(C)=O)ccc2F)[nH]1` (stereo not shown) [Example 96, 3-(3-(1-(2-(5-((4-(Dimethylphosphoryl)-6-fluoro-1H-indol-5-yl)oxy)-2-fluorophenyl)-1H-imidazol-5-yl)-1-hydroxyethyl)phenyl)propanoic acid] was tested, and the “DSLS NBD1/3D Human Stability delta-T (° C.) @ 100 (μM)” value (from here on “DSLS NBD1/3D Human Stability delta-T”) was “B (B: 5-10° C.)”. For `O=C(O)CCc1cccc(C(O)c2cnc(-c3cccc(Oc4ccc5[nH]ccc5c4C4CC4)c3)[nH]2)c1` (stereo not shown) [Example 175, 3-(3-((2-(3-((4-cyclopropyl-1H-indol-5-yl)oxy)phenyl)-1H-imidazol-5-yl)(hydroxy)methyl)phenyl)propanoic acid], the “DSLS NBD1/3D Human Stability delta-T” value was “B (B: 5-10° C.)”. For `Cn1nc(-c2cccc(Oc3c(F)cc4[nH]ccc4c3S(C)(=O)=O)c2)nc1Cc1cccc(CCC(=O)O)c1` [Example 31, 3-(3-((3-(3-((6-Fluoro-4-(methylsulfonyl)-1H-indol-5-yl)oxy)phenyl)-1-methyl-1H-1,2,4-triazol-5-yl)methyl)phenyl)propanoic acid], the “DSLS NBD1/3D Human Stability delta-T” value was “B (B: 5-10° C.)”. With `Cc1c(Oc2ccc(F)c(-c3ncc(Cc4cccc(CCC(=O)O)c4F)[nH]3)c2)ccc2[nH]ccc12` [Example 116, 3-(2-fluoro-3-((2-(2-fluoro-5-((4-methyl-1H-indol-5-yl)oxy)phenyl)-1H-imidazol-5-yl)methyl)phenyl)propanoic acid] the “DSLS NBD1/3D Human Stability delta-T” value was “B (B: 5-10° C.)”. `Cc1c(Oc2ccc(F)c(-c3ncc(C(C)c4cccc([C@@H]5C[C@@H]5C(=O)O)c4F)[nH]3)c2)c(F)cc2[nH]ccc12` (single isomer, unassigned) [Example 138C, cis-2-(2-fluoro-3-(1-(2-(2-fluoro-5-((6-fluoro-4-methyl-1H-indol-5-yl)oxy)phenyl)-1H-imidazol-5-yl)ethyl)phenyl)cyclopropane-1-carboxylic acid] was tested, and the “DSLS NBD1/3D Human Stability delta-T” value was “C (C: ≤5° C.)”. With `CC(O)(c1cccc(CCC(=O)O)c1)c1cnc(-c2cc(Oc3cc(F)c4[nH]ccc4c3)ccc2F)[nH]1` (stereo not shown) [Example 196, 3-(3-(1-(2-(2-fluoro-5-((7-fluoro-1H-indol-5-yl)oxy)phenyl)-1H-imidazol-5-yl)-1-hydroxyethyl)phenyl) propanoic acid] the “DSLS NBD1/3D Human Stability delta-T” value was “B (B: 5-10° C.)”. With `CCC(O)(c1cccc(CCC(=O)O)c1)c1cnc(-c2cc(Oc3c(F)cc4[nH]ccc4c3C)ccc2F)[nH]1` (stereo not shown) [Example 223, 3-(3-(1-(2-(2-fluoro-5-((6-fluoro-4-methyl-1H-indol-5-yl)oxy)phenyl)-1H-imidazol-5-yl)-1-hydroxypropyl)phenyl) propanoic acid] the “DSLS NBD1/3D Human Stability delta-T” value was “B (B: 5-10° C.)”. In the case of `O=C(O)CCc1cccc(C2(c3csc(-c4cc(Oc5c(F)cc6[nH]ccc6c5F)ccc4F)n3)CC(F)(F)C2)c1` [Example 94, 3-(3-(1-(2-(5-((4,6-difluoro-1H-indol-5-yl)oxy)-2-fluorophenyl)thiazol-4-yl)-3,3-difluorocyclobutyl)phenyl)propanoic acid], the “DSLS NBD1/3D Human Stability delta-T” value is reported as “B (B: 5-10° C.)”. `Cc1c(Oc2ccc(F)c(-c3nnc(Cc4ccc5c(c4)CC(C(=O)O)C5)[nH]3)c2)c(F)cc2[nH]ccc12` (stereo not shown) [Example 245, 5-((5-(2-Fluoro-5-((6-fluoro-4-methyl-1H-indol-5-yl)oxy)phenyl)-4H-1,2,4-triazol-3-yl)methyl)-2,3-dihydro-1H-indene-2-carboxylic acid] was tested, and the “DSLS NBD1/3D Human Stability delta-T” value was “C (C: ≤5° C.)”. With `CC(c1cnc(-c2cc(Oc3c(F)cc4[nH]ccc4c3F)ccc2F)[nH]1)c1cc(F)cc(CCC(=O)O)c1F` (single isomer, unassigned) [Example 132A, 3-(3-(1-(2-(5-((4,6-difluoro-1H-indol-5-yl)oxy)-2-fluorophenyl)-1H-imidazol-5-yl)ethyl)-2,5-difluorophenyl)propanoic acid] the “DSLS NBD1/3D Human Stability delta-T” value was “C (C: ≤5° C.)”. With `Cc1c(Oc2ccc(F)c(-c3nc(Cc4cccc(CCC(=O)O)c4F)c[nH]3)c2)c(F)c(F)c2[nH]ccc12` [Example 112, 3-(3-((2-(5-((6,7-difluoro-4-methyl-1H-indol-5-yl)oxy)-2-fluorophenyl)-1H-imidazol-4-yl)methyl)-2-fluorophenyl)propanoic acid] the “DSLS NBD1/3D Human Stability delta-T” value was “B (B: 5-10° C.)”. In the case of `C[C@H]1C[C@](c2cccc(CCC(=O)O)c2)(c2cnc(-c3cc(Oc4c(F)cc5[nH]ccc5c4F)ccc3F)[nH]2)CCO1` (single isomer, unassigned) [Example 152], the “DSLS NBD1/3D Human Stability delta-T” value is reported as “B (B: 5-10° C.)”. For `CC(O)(c1cccc(CCC(=O)O)c1)c1cnc(-c2cccc(Oc3c(F)cc4[nH]ccc4c3S(=O)(=O)CC(F)F)c2)[nH]1` (stereo not shown) [Example 28, 3-(3-(1-(2-(3-((4-((2,2-difluoroethyl)sulfonyl)-6-fluoro-1H-indol-5-yl)oxy)phenyl)-1H-imidazol-5-yl)-1-hydroxyethyl)phenyl)propanoic acid], the “DSLS NBD1/3D Human Stability delta-T” value was “A (A: T ≥ 10° C.)”. For `Cc1c(Oc2ccc(F)c(-c3ncc(C4(c5cccc(CCC(=O)O)c5)CC(C)OC(C)C4)[nH]3)c2)c(F)cc2[nH]ccc12` (stereo not shown) [Example 149, 3-(3-(4-(2-(2-fluoro-5-((6-fluoro-4-methyl-1H-indol-5-yl)oxy)phenyl)-1H-imidazol-5-yl)-2,6-dimethyltetrahydro-2H-pyran-4-yl)phenyl)propanoic acid], the “DSLS NBD1/3D Human Stability delta-T” value was “B (B: 5-10° C.)”. With `Cc1c(Oc2cccc(-c3ccn(Cc4cccc(CCCO)c4)n3)c2)ccc2[nH]ccc12` [Example 6, 3-(3-((3-(3-((4-Methyl-1H-indol-5-yl)oxy)phenyl)-1H-pyrazol-1-yl)methyl)phenyl)propan-1-ol] the “DSLS NBD1/3D Human Stability delta-T” value was “C (C: ≤5° C.)”. In the case of `O=C(O)CCc1cc(F)cc(Cc2c[nH]c(-c3cc(Oc4c(F)cc5[nH]ccc5c4F)ccc3F)n2)c1` [Example 114, 3-(3-((2-(5-((4,6-difluoro-1H-indol-5-yl)oxy)-2-fluorophenyl)-1H-imidazol-4-yl)methyl)-5-fluorophenyl)propanoic acid], the “DSLS NBD1/3D Human Stability delta-T” value is reported as “B (B: 5-10° C.)”. In the case of `Cc1c(Oc2ccc(F)c(-c3ncc(Cc4cccc(CCC(=O)O)c4)[nH]3)c2)c(F)cc2[nH]ccc12` [Example 115, 3-(3-((2-(2-fluoro-5-((6-fluoro-4-methyl-1H-indol-5-yl)oxy)phenyl)-1H-imidazol-5-yl)methyl)phenyl)propanoic acid], the “DSLS NBD1/3D Human Stability delta-T” value is reported as “B (B: 5-10° C.)”. For `CS(=O)(=O)c1c(Oc2ccc(F)c(-c3ncc(C4(c5cccc(CCC(=O)O)c5)CC(F)(F)C4)[nH]3)c2)c(F)cc2[nH]ccc12` [Example 78, 3-(3-(3,3-Difluoro-1-(2-(2-fluoro-5-((6-fluoro-4-(methylsulfonyl)-1H-indol-5-yl)oxy)phenyl)-1H-imidazol-5-yl)cyclobutyl)phenyl)propanoic acid], the “DSLS NBD1/3D Human Stability delta-T” value was “A (A: T ≥ 10° C.)”. With `CC(O)(c1cccc(CS(N)(=O)=O)c1)c1cnc(-c2cccc(Oc3c(F)cc4[nH]ccc4c3F)c2)[nH]1` (stereo not shown) [Example 209, (3-(1-(2-(3-((4,6-difluoro-1H-indol-5-yl)oxy)phenyl)-1H-imidazol-5-yl)-1-hydroxyethyl)phenyl) methanesulfonamide] the “DSLS NBD1/3D Human Stability delta-T” value was “B (B: 5-10° C.)”. With `Cc1c(Oc2ccc(F)c(-c3ncc(Cc4cc(F)cc(CCC(=O)O)c4)[nH]3)c2)c(F)c(F)c2[nH]ccc12` [Example 105, 3-(3-((2-(5-((6,7-difluoro-4-methyl-1H-indol-5-yl)oxy)-2-fluorophenyl)-1H-imidazol-5-yl)methyl)-5-fluorophenyl)propanoic acid] the “DSLS NBD1/3D Human Stability delta-T” value was “B (B: 5-10° C.)”. With `COC(=O)CCc1cccc(Cn2ccc(-c3cccc(Oc4ccc5[nH]ccc5c4CO)c3)n2)c1` [Example 8, Methyl 3-(3-((3-(3-((4-(hydroxymethyl)-1H-indol-5-yl)oxy)phenyl)-1H-pyrazol-1-yl)methyl)phenyl)propanoate] the “DSLS NBD1/3D Human Stability delta-T” value was “C (C: ≤5° C.)”. For `CC(CC(=O)O)c1cccc([C@H](O)c2cnc(-c3cccc(Oc4c(F)cc5[nH]ccc5c4F)c3)[nH]2)c1` (stereo partly drawn) [Example 182, 3-(3-((S)-(2-(3-((4,6-Difluoro-1H-indol-5-yl)oxy)phenyl)-1H-imidazol-5-yl)(hydroxy)methyl)phenyl)butanoic acid], the “DSLS NBD1/3D Human Stability delta-T” value was “B (B: 5-10° C.)”.
